Measurements published in publication PMC11911254 (Pharmacological Reports, 2025).

Assay: Concentration of paracetamol and its metabolites in plasma, CSF and brain cortex by LC-MS/MS
Settings: for concentration at 30 min: Sprague Dawley, rat; for Concentration in plasma / Concentration in brain: individual values if <3 samples
Protocol: Drug injection protocol is illustrated in Fig. 1.
Male and female postnatal P4 pups and 7–8 week-old non-pregnant females were used. […] In combination therapy experiments, this dose was accompanied by one of the 7 other drugs (Table 1). For all experiments, animals were terminally anesthetized 30 min after the drug injection using inhaled isoflurane (IsoFlo 100% w/w, Abbott Laboratories), and blood, CSF, and brain samples were collected. Blood was collected directly from the right cardiac ventricle, CSF from the cisterna magna, and cortical brain samples from the frontal/parietal lobes dorsal to the lateral ventricles as described previously.
Pregnant E19 dams were anesthetized with ip urethane injection (25% w/v urethane, Sigma, 1 ml/100 g body weight) and placed on a 39 °C heating pad in the supine position. An endotracheal catheter was inserted to maintain a clear airway. Catheters were inserted into the femoral vein and artery for iv drug administration and arterial blood sampling respectively. The cannula was flushed with 0.5 ml of heparinized saline (Hospira Inc, 5,000 units/ml) after drug administration and following each arterial blood sample. Following drug administration to the dams, fetuses were exteriorized and serially collected starting at 30 min post-maternal injection. […] At collection, the viability of each fetus was assessed (presence of a heartbeat, the colour of the umbilical vessels) and blood, CSF, and brain samples were taken along with a time-matched maternal blood sample from the femoral artery. At the end of the experiment, a final maternal blood sample was taken directly from the left cardiac ventricle, and CSF and brain samples were collected.
This method has been described previously for valproate, lamotrigine, and olanzapine and was applied in the present study. Simultaneous quantification was performed for all compounds in plasma, brain, and CSF samples following the addition of respective stable isotope-labeled internal standards.
Linear response range was determined in untreated control rat plasma for each compound at 0.1, 1, 10, 50, 100, 200, 400, and 800 µg/ml.

[1] = non-pregnant adult rats, 30 min after ip paracetamol 15 mg/kg + lamotrigine 6 mg/kg (PARA+LTG, n=3), median (IQR)

SMILES: CC(=O)Nc1ccc(O)cc1 [Paracetamol, reference compound]
- concentration at 30 min (both, brain cortex, intraperitoneal, Concentration in brain, P4 rats, 30 min after ip paracetamol 15 mg/kg + cimetidine 11 mg/kg (PARA+CIM, n=4), median (IQR)): 9000 ng/mL
- concentration at 30 min (both, brain cortex, intraperitoneal, Concentration in brain, P4 rats, 30 min after ip paracetamol 15 mg/kg + digoxin 0.03 mg/kg (PARA+DIG, n=4), median (IQR)): 10300 ng/mL
- concentration at 30 min (both, brain cortex, intraperitoneal, Concentration in brain, P4 rats, 30 min after ip paracetamol 15 mg/kg + fluvoxamine 1.5 mg/kg (PARA+FLX, n=4), median (IQR) or individual values): 8700 ng/mL
- concentration at 30 min (both, brain cortex, intraperitoneal, Concentration in brain, P4 rats, 30 min after ip paracetamol 15 mg/kg + lamotrigine 6 mg/kg (PARA+LTG, n=5), median (IQR)): 9900 ng/mL
- concentration at 30 min (both, brain cortex, intraperitoneal, Concentration in brain, P4 rats, 30 min after ip paracetamol 15 mg/kg + lithium 3.2 mg/kg (PARA+Li, n=4), median (IQR)): 7600 ng/mL
- concentration at 30 min (both, brain cortex, intraperitoneal, Concentration in brain, P4 rats, 30 min after ip paracetamol 15 mg/kg + olanzapine 0.15 mg/kg (PARA+OLZ, n=4), median (IQR)): 6900 ng/mL
- concentration at 30 min (both, brain cortex, intraperitoneal, Concentration in brain, P4 rats, 30 min after ip paracetamol 15 mg/kg + valproate 30 mg/kg (PARA+VPA, n=4), median (IQR) or individual values): 5300 ng/mL
- concentration at 30 min (both, brain, CSF, 15 mg/kg, brain and CSF concentrations, monotherapy 15 mg/kg, 30 min, all ages (E19, P4, adult)): 5000 to 10000 ng/mL
- concentration at 30 min (both, plasma, intraperitoneal, 15 mg/kg, Concentration in plasma, P4 rats, 30 min after ip paracetamol 15 mg/kg monotherapy (PARA, n=4), median (IQR)): 5600 ng/mL
- concentration at 30 min (both, plasma, intraperitoneal, Concentration in plasma, P4 rats, 30 min after ip paracetamol 15 mg/kg + cimetidine 11 mg/kg (PARA+CIM, n=4), median (IQR)): 10600 ng/mL
- concentration at 30 min (both, plasma, intraperitoneal, Concentration in plasma, P4 rats, 30 min after ip paracetamol 15 mg/kg + digoxin 0.03 mg/kg (PARA+DIG, n=4), median (IQR)): 8200 ng/mL
- concentration at 30 min (both, plasma, intraperitoneal, Concentration in plasma, P4 rats, 30 min after ip paracetamol 15 mg/kg + fluvoxamine 1.5 mg/kg (PARA+FLX, n=4), median (IQR)): 6500 ng/mL
- concentration at 30 min (both, plasma, intraperitoneal, Concentration in plasma, P4 rats, 30 min after ip paracetamol 15 mg/kg + lamotrigine 6 mg/kg (PARA+LTG, n=5), median (IQR)): 7200 ng/mL
- concentration at 30 min (both, plasma, intraperitoneal, Concentration in plasma, P4 rats, 30 min after ip paracetamol 15 mg/kg + lithium 3.2 mg/kg (PARA+Li, n=4), median (IQR)): 4300 ng/mL
- concentration at 30 min (both, plasma, intraperitoneal, Concentration in plasma, P4 rats, 30 min after ip paracetamol 15 mg/kg + olanzapine 0.15 mg/kg (PARA+OLZ, n=4), median (IQR)): 5600 ng/mL
- concentration at 30 min (both, plasma, intraperitoneal, Concentration in plasma, P4 rats, 30 min after ip paracetamol 15 mg/kg + valproate 30 mg/kg (PARA+VPA, n=4), median (IQR) or individual values): 6700 ng/mL
- concentration at 30 min (both, plasma, intraperitoneal, concentration in plasma, P4, monotherapy and combination therapy with any of the drugs investigated): ~5000 ng/mL
- concentration at 30 min (female, CSF, intraperitoneal, 15 mg/kg, Concentration in CSF, non-pregnant adult rats, 30 min after ip paracetamol 15 mg/kg monotherapy (PARA, n=6), median (IQR)): 5300 ng/mL
- concentration at 30 min (female, CSF, intraperitoneal, Concentration in CSF, non-pregnant adult rats, 30 min after ip paracetamol 15 mg/kg + cimetidine 11 mg/kg (PARA+CIM, n=3), median (IQR)): 2100 ng/mL
- concentration at 30 min (female, CSF, intraperitoneal, Concentration in CSF, non-pregnant adult rats, 30 min after ip paracetamol 15 mg/kg + digoxin 0.03 mg/kg (PARA+DIG, n=3), median (IQR)): 4200 ng/mL
- concentration at 30 min (female, CSF, intraperitoneal, Concentration in CSF, non-pregnant adult rats, 30 min after ip paracetamol 15 mg/kg + fluvoxamine 1.5 mg/kg (PARA+FLX, n=4), median (IQR)): 4400 ng/mL
- concentration at 30 min (female, CSF, intraperitoneal, Concentration in CSF, non-pregnant adult rats, 30 min after ip paracetamol 15 mg/kg + olanzapine 0.15 mg/kg (PARA+OLZ, n=4), median (IQR)): 4200 ng/mL
- concentration at 30 min (female, CSF, intraperitoneal, Concentration in CSF, non-pregnant adult rats, 30 min after ip paracetamol 15 mg/kg + valproate 30 mg/kg (PARA+VPA, n=3), median (IQR)): 4700 ng/mL
- concentration at 30 min (female, brain, intraperitoneal, 15 mg/kg, Concentration in brain, non-pregnant adult rats, 30 min after ip paracetamol 15 mg/kg monotherapy (PARA, n=6), median (IQR)): 8100 ng/mL
- concentration at 30 min (female, brain, intraperitoneal, Concentration in brain, non-pregnant adult rats, 30 min after ip paracetamol 15 mg/kg + cimetidine 11 mg/kg (PARA+CIM, n=3), median (IQR)): 2900 ng/mL
- concentration at 30 min (female, brain, intraperitoneal, Concentration in brain, non-pregnant adult rats, 30 min after ip paracetamol 15 mg/kg + olanzapine 0.15 mg/kg (PARA+OLZ, n=4), median (IQR)): 3900 ng/mL
- concentration at 30 min (female, brain, intraperitoneal, Concentration in brain, non-pregnant adult rats, 30 min after ip paracetamol 15 mg/kg + valproate 30 mg/kg (PARA+VPA, n=3), median (IQR)): 7500 ng/mL
- concentration at 30 min (female, plasma, intraperitoneal, 15 mg/kg, Concentration in plasma, non-pregnant adult rats, 30 min after ip paracetamol 15 mg/kg monotherapy (PARA, n=6), median (IQR)): 8400 ng/mL
- concentration at 30 min (female, plasma, intraperitoneal, Concentration in plasma, non-pregnant adult rats, 30 min after ip paracetamol 15 mg/kg + digoxin 0.03 mg/kg (PARA+DIG, n=3), median (IQR)): 4400 ng/mL
- concentration at 30 min (female, plasma, intraperitoneal, Concentration in plasma, non-pregnant adult rats, 30 min after ip paracetamol 15 mg/kg + fluvoxamine 1.5 mg/kg (PARA+FLX, n=4), median (IQR)): 4600 ng/mL
- concentration at 30 min (female, plasma, intraperitoneal, Concentration in plasma, non-pregnant adult rats, 30 min after ip paracetamol 15 mg/kg + olanzapine 0.15 mg/kg (PARA+OLZ, n=4), median (IQR)): 6700 ng/mL
- Concentration in plasma (non-pregnant adult rats, 30 min after ip paracetamol 15 mg/kg + cimetidine 11 mg/kg (PARA+CIM, n=3), median (IQR)): 3.4 (1.0) µg/ml
- Concentration in brain (non-pregnant adult rats, 30 min after ip paracetamol 15 mg/kg + digoxin 0.03 mg/kg (PARA+DIG, n=3), median (IQR)): 4.3 (1.6) µg/ml
- Concentration in brain [1]: 7.1 (0.7) µg/ml
- Concentration in plasma [1]: 7.5 (1.0) µg/ml
- Concentration in plasma (non-pregnant adult rats, 30 min after ip paracetamol 15 mg/kg + valproate 30 mg/kg (PARA+VPA, n=3), median (IQR)): 7.5 (1.3) µg/ml
